Laboratory results reported in patent US9873696B2, “Neprilysin inhibitors” (THERAVANCE BIOPHARMA R&D IP, LLC, priority 2010, dated 2018).

These compounds were tested against T1, human NEP (Homo sapiens, UniProt P08473) (assay: In vitro enzyme inhibition assay at human NEP (Assay 1)). Conditions: recombinant enzyme, fluorogenic peptide substrate, 37° C.
T1 construct: purchased R&D Systems, Minneapolis, Minn; 1182-ZN
T1 sequence (P08473 whole entry): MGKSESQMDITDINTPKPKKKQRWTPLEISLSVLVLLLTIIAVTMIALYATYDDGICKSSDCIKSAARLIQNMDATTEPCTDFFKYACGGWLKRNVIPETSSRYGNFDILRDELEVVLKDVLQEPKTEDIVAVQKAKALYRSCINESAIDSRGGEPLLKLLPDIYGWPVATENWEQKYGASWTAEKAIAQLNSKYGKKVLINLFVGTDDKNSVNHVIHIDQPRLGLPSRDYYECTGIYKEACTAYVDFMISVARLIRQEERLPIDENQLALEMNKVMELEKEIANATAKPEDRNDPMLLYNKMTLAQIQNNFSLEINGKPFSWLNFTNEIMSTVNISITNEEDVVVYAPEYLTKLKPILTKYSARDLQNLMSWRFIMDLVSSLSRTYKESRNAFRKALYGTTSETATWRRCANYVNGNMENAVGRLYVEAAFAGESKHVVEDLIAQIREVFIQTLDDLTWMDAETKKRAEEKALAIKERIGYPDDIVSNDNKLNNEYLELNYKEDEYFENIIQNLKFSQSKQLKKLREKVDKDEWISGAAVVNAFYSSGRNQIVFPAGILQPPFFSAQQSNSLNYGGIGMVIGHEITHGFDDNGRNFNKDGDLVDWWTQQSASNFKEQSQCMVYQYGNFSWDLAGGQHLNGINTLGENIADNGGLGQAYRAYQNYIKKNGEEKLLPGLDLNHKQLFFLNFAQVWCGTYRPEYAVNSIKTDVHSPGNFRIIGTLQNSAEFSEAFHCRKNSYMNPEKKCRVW
Assay type: biochemical
Method: In Vitro Assays for the Quantitation of Inhibitor Potencies (IC50) at Human and Rat NEP, and Human ACE
The inhibitory activities of compounds at human and rat neprilysin (EC 3.4.24.11; NEP) and human angiotensin converting enzyme (ACE) were determined using in vitro assays as described below.
Recombinant human NEP and recombinant human ACE were obtained commercially (R&D Systems, Minneapolis, Minn., catalog numbers 1182-ZN and 929-ZN, respectively). The fluorogenic peptide substrate Mca-D-Arg-Arg-Leu-Dap-(Dnp)-OH (Medeiros et al. (1997) Braz. J. Med. Biol. Res. 30:1157-62; Anaspec, San Jose, Calif.) and Abz-Phe-Arg-Lys(Dnp)-Pro-OH (Araujo et al. (2000) Biochemistry 39:8519-8525; Bachem, Torrance, Calif.) were used in the NEP and ACE assays respectively.
The assays were performed in 384-well white opaque plates at 37° C. using the fluorogenic peptide substrates at a concentration of 10 μM in Assay Buffer (NEP: 50 mM HEPES, pH 7.5, 100 mM NaCl, 0.01% polyethylene glycol sorbitan monolaurate (Tween-20), 10 μM ZnSO4; ACE: 50 mM HEPES, pH 7.5, 100 mM NaCl, 0.01% Tween-20, 1 μM ZnSO4).
Test compounds were assayed over the range of concentrations from […] to 20 μM. Test compounds were added to the enzymes and incubated for 30 minute at 37° C. prior to initiating the reaction by the addition of substrate. Reactions were terminated after 20 minutes of incubation at 37° C. by the addition of glacial acetic acid to a final concentration of 3.6% (v/v).
Plates were read on a fluorometer with excitation and emission wavelengths set to 320 nm and 405 nm, respectively. Inhibition constants were obtained by nonlinear regression of the data using the equation (GraphPad Software, Inc., San Diego, Calif.): v=v0/[1+(I/K′)] where v is the reaction rate, v0 is the uninhibited reaction rate, I is the inhibitor concentration and K′ is the apparent inhibition constant.
Compounds of the invention were tested in this assay and found to have pKi values at human NEP as follows.
`COc1ccccc1-c1cc(C(=O)NN(Cc2ccc(-c3cccc(Cl)c3)cc2)C[C@@H](O)C(=O)O)on1` [Example 4-30, (R)-3-{N-(3′-Chlorobiphenyl-4-ylmethyl)-N′-[3-(2-methoxy-phenyl)-isoxazole-5-carbonyl]-hydrazino}-2-hydroxy-propionic acid] was tested, and the Ki was 1.26 to 10 nM.
Work on `COc1ccccc1-c1cc(C(=O)NN(Cc2ccc(-c3cc(Cl)ccc3F)cc2)C[C@@H](O)C(=O)O)on1` [Example 8-15, (R)-3-{N-(5′-Chloro-2′-fluoro-biphenyl-4-ylmethyl)-N′-[3-(2-methoxy-phenyl)-isoxazole-5-carbonyl]-hydrazino}-2-hydroxy-propionic acid] yielded a Ki of at most 1 nM.
Compound `CC(=O)c1cc(C(=O)NN(Cc2ccc(-c3cc(Cl)ccc3C)cc2)C[C@H](O)C(=O)O)[nH]n1` [Example 8-47, (S)-3-[N′-(5-Acetyl-2H-pyrazole-3-carbonyl)-N-(5′-chloro-2′-methyl-biphenyl-4-ylmethyl)-hydrazino]-2-hydroxy-propionic acid] has a Ki of 1.26 to 10 nM.
Compound `O=C(NN(Cc1ccc(-c2ccccc2)cc1)C[C@@H](O)C(=O)O)c1cc(C(=O)N2CC[C@@H](O)C2)n[nH]1` [Example 2-11, (R)-3-{N-Biphenyl-4-ylmethyl-N′-[5-((R)-3-hydroxy-pyrrolidine-1-carbonyl)-2H-pyrazole-3-carbonyl]hydrazino}-2-hydroxypropionic acid] has a Ki of 1.26 to 10 nM.
For `CC(C)(O)c1cc(C(=O)NN(Cc2ccc(-c3cccc(Cl)c3)cc2)C[C@@H](O)C(=O)O)[nH]n1` [Example 4-27, (R)-3-{N-(3′-Chlorobiphenyl-4-ylmethyl)-N′-[5-(1-hydroxy-1-methyl-ethyl)-2H-pyrazole-3-carbonyl]-hydrazino}-2-hydroxy-propionic acid], the Ki was 1.26 to 10 nM.
In the case of `O=C(NN(Cc1ccc(-c2cccc(Cl)c2)cc1)C[C@@H](O)C(=O)O)c1cnn[nH]1` [Example 4-3, (R)-3-[N-(3′-Chlorobiphenyl-4-ylmethyl)-N′-(3H-[1,2,3]triazole-4-carbonyl)-hydrazino]-2-hydroxy-propionic acid], the Ki is reported as 1.26 to 10 nM.
Compound `O=C(NN(Cc1ccc(-c2cccc(Cl)c2)cc1)C[C@@H](O)C(=O)O)c1cc(-c2ccccn2)n[nH]1` [Example 4-21, (R)-3-[N-(3′-Chlorobiphenyl-4-ylmethyl)-N′-(5-pyridin-2-yl-2H-pyrazole-3-carbonyl)-hydrazino]-2-hydroxy-propionic acid] has a Ki of 1.26 to 10 nM.
In the case of `O=C(NN(Cc1ccc(-c2ccccc2)cc1)C[C@@H](O)C(=O)O)c1cc(F)c2[nH]nnc2c1` [Example 2-23, (R)-3-[N-Biphenyl-4-ylmethyl-N′-(7-fluoro-1H-benzotriazole-5-carbonyl)-hydrazino]-2-hydroxypropionic acid], the Ki is reported as 126 to 1000 nM.
`COc1ccc(F)cc1-c1ccc(CN(C[C@@H](O)C(=O)O)NC(=O)c2cc(O)no2)cc1` [Example 8-4, (R)-3-[N-(5′-Fluoro-2′-methoxy-biphenyl-4-ylmethyl)-N′-(3-hydroxy-isoxazole-5-carbonyl)-hydrazino]-2-hydroxy-propionic acid] showed a Ki of 1.26 to 10 nM.
`O=C(NN(Cc1ccc(-c2cc(Cl)ccc2F)cc1)C[C@@H](O)C(=O)O)c1cc(O)n(-c2ccccc2F)n1` [Example 8-52, (R)-3-{N-(5′-Chloro-2′-fluoro-biphenyl-4-ylmethyl)-N′-[1-(2-fluoro-phenyl)-5-hydroxy-1H-pyrazole-3-carbonyl]-hydrazino}-2-hydroxy-propionic acid] showed a Ki of 1.26 to 10 nM.
`O=C(NN(Cc1ccc(-c2cccc(Cl)c2)cc1)C[C@@H](O)C(=O)O)c1cc(-c2ccccc2Cl)no1` [Example 4-29, (R)-3-{N-(3′-Chlorobiphenyl-4-ylmethyl)-N′-[3-(2-chlorophenyl)-isoxazole-5-carbonyl]-hydrazino}-2-hydroxy-propionic acid] gave a Ki of at most 1 nM.
Work on `O=C(NN(Cc1ccc(-c2cc(Cl)ccc2F)cc1Cl)C[C@@H](O)C(=O)O)c1cc(O)no1` [Example 10-7, (R)-3-[N-(3,5′-Dichloro-2′-fluoro-biphenyl-4-ylmethyl)-N′-(3-hydroxy-isoxazole-5-carbonyl)-hydrazino]-2-hydroxy-propionic acid] yielded a Ki of at most 1 nM.
